Experimental data taken from the supplement of paper PMC10307832.

Columns and labels:
Test in all cases: relative viability (nuclei count vs DMSO), 5 days (fraction); higher = more cells survive
201T = system: 201T
Outline: (§1)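 The day after seeding in 1536-well plates, lung cancer cell lines were treated by pin tool with a single drug, or with a fixed anchor-drug dose together with five library-drug doses (not always all listed) in √10 steps. After 5 days, a combined fix-and-stain solution (final 0.05% Triton X-100, 1% formaldehyde, 1 ug/ml Hoechst) was added. Nuclei counted on 4× images gave relative viability as treated counts over vehicle counts, reported as the median of duplicate plates.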

Calu-6 = system: Calu-6
Outline: as §1

EBC-1 = system: EBC-1
Outline: as §1

EMC-BAC-2 = system: EMC-BAC-2
Outline: as §1

EPLC-272H = system: EPLC-272H
Outline: as §1

HCC-78 = system: HCC-78
Outline: as §1

IA-LM = system: IA-LM
Outline: as §1

LCLC-103H = system: LCLC-103H
Outline: as §1

NCI-H1355 = system: NCI-H1355
Outline: as §1

NCI-H1666 = system: NCI-H1666
Outline: as §1

NCI-H1755 = system: NCI-H1755
Outline: as §1

NCI-H1793 = system: NCI-H1793
Outline: as §1

NCI-H1975 = system: NCI-H1975
Outline: as §1

NCI-H2126 = system: NCI-H2126
Outline: as §1

NCI-H2170 = system: NCI-H2170
Outline: as §1

NCI-H2228 = system: NCI-H2228
Outline: as §1

NCI-H2342 = system: NCI-H2342
Outline: as §1

NCI-H441 = system: NCI-H441
Outline: as §1

NCI-H520 = system: NCI-H520
Outline: as §1

NCI-H727 = system: NCI-H727
Outline: as §1

NCI-H838 = system: NCI-H838
Outline: as §1

PC-3 [JPC-3] = system: PC-3 [JPC-3]
Outline: as §1

SK-MES-1 = system: SK-MES-1
Outline: as §1

SW 1573 = system: SW 1573
Outline: as §1

Molecule `Nc1cccc2c1CN(C1CCC(=O)NC1=O)C2=O` (configuration not stated) [Lenalidomide] + COc1cc2c(Oc3ccc(NC(=O)C4(C(=O)Nc5ccc(F)cc5)CC4)cc3F)ccnc2cc1OCCCN1CCOCC1 [Foretinib] (partner 0.25 µM) has a relative viability (201T; first compound 0.253 µM) of 1.08, a relative viability (201T; first compound 2.53 µM) of 1.23 and a relative viability (201T; first compound 8 µM) of 1.13. It also gave a relative viability (Calu-6; first compound 0.253 µM) of 0.932, a relative viability (Calu-6; first compound 0.8 µM) of 0.889 and a relative viability (Calu-6; first compound 2.53 µM) of 0.921. For the same molecule, the relative viability (Calu-6; first compound 8 µM) was 0.887, the relative viability (EBC-1; first compound 0.253 µM) was 0.0951 and the relative viability (EBC-1; first compound 0.8 µM) was 0.0871. For the same molecule, the relative viability (EBC-1; first compound 2.53 µM) was 0.0994, the relative viability (EBC-1; first compound 8 µM) was 0.109 and the relative viability (EMC-BAC-2; first compound 0.253 µM) was 1. For the same molecule, the relative viability (EMC-BAC-2; first compound 0.8 µM) was 0.967, the relative viability (EMC-BAC-2; first compound 2.53 µM) was 1.04 and the relative viability (EMC-BAC-2; first compound 8 µM) was 0.885. It also gave a relative viability (EPLC-272H; first compound 0.253 µM) of 0.795, a relative viability (EPLC-272H; first compound 0.8 µM) of 0.658 and a relative viability (EPLC-272H; first compound 2.53 µM) of 0.681. For the same molecule, the relative viability (EPLC-272H; first compound 8 µM) was 0.549, the relative viability (HCC-78; first compound 0.253 µM) was 0.673 and the relative viability (HCC-78; first compound 0.8 µM) was 0.526. For the same molecule, the relative viability (HCC-78; first compound 2.53 µM) was 0.516, the relative viability (HCC-78; first compound 8 µM) was 0.514 and the relative viability (IA-LM; first compound 0.253 µM) was 0.952. The relative viability (IA-LM; first compound 0.8 µM) was 1.15, the relative viability (IA-LM; first compound 2.53 µM) was 1.28 and the relative viability (IA-LM; first compound 8 µM) was 1.07. The relative viability (LCLC-103H; first compound 0.253 µM) was 0.761, the relative viability (LCLC-103H; first compound 0.8 µM) was 0.806 and the relative viability (LCLC-103H; first compound 2.53 µM) was 0.888. For the same molecule, the relative viability (LCLC-103H; first compound 8 µM) was 0.682, the relative viability (NCI-H1355; first compound 0.253 µM) was 0.973 and the relative viability (NCI-H1355; first compound 2.53 µM) was 0.901. The relative viability (NCI-H1355; first compound 8 µM) was 0.808, the relative viability (NCI-H1666; first compound 0.253 µM) was 1 and the relative viability (NCI-H1666; first compound 2.53 µM) was 1. For the same molecule, the relative viability (NCI-H1666; first compound 8 µM) was 0.983, the relative viability (NCI-H1755; first compound 0.253 µM) was 0.915 and the relative viability (NCI-H1755; first compound 0.8 µM) was 0.904. For the same molecule, the relative viability (NCI-H1755; first compound 2.53 µM) was 0.886, the relative viability (NCI-H1755; first compound 8 µM) was 0.782 and the relative viability (NCI-H1793; first compound 0.253 µM) was 0.706. For the same molecule, the relative viability (NCI-H1793; first compound 2.53 µM) was 1.04, the relative viability (NCI-H1793; first compound 8 µM) was 0.655 and the relative viability (NCI-H1975; first compound 0.253 µM) was 0.942. For the same molecule, the relative viability (NCI-H1975; first compound 0.8 µM) was 0.823, the relative viability (NCI-H1975; first compound 2.53 µM) was 1.07 and the relative viability (NCI-H1975; first compound 8 µM) was 1.14. The relative viability (NCI-H2126; first compound 0.253 µM) was 1.33, the relative viability (NCI-H2126; first compound 0.8 µM) was 1.13 and the relative viability (NCI-H2126; first compound 2.53 µM) was 1.39. It also gave a relative viability (NCI-H2126; first compound 8 µM) of 1.14, a relative viability (NCI-H2170; first compound 0.253 µM) of 0.972 and a relative viability (NCI-H2170; first compound 0.8 µM) of 1. For the same molecule, the relative viability (NCI-H2170; first compound 2.53 µM) was 1.04, the relative viability (NCI-H2170; first compound 8 µM) was 1.02 and the relative viability (NCI-H2228; first compound 0.253 µM) was 0.943. It also gave a relative viability (NCI-H2228; first compound 0.8 µM) of 0.907, a relative viability (NCI-H2228; first compound 2.53 µM) of 1.04 and a relative viability (NCI-H2228; first compound 8 µM) of 0.975. The relative viability (NCI-H2342; first compound 0.253 µM) was 1.08, the relative viability (NCI-H2342; first compound 0.8 µM) was 1.01 and the relative viability (NCI-H2342; first compound 2.53 µM) was 1.11. It also gave a relative viability (NCI-H2342; first compound 8 µM) of 0.898, a relative viability (NCI-H441; first compound 0.253 µM) of 1 and a relative viability (NCI-H441; first compound 0.8 µM) of 0.722. For the same molecule, the relative viability (NCI-H441; first compound 2.53 µM) was 1.16, the relative viability (NCI-H441; first compound 8 µM) was 0.795 and the relative viability (NCI-H520; first compound 0.253 µM) was 0.805. For the same molecule, the relative viability (NCI-H520; first compound 0.8 µM) was 0.627, the relative viability (NCI-H520; first compound 2.53 µM) was 0.875 and the relative viability (NCI-H520; first compound 8 µM) was 0.711. For the same molecule, the relative viability (NCI-H727; first compound 0.253 µM) was 0.904, the relative viability (NCI-H727; first compound 0.8 µM) was 0.929 and the relative viability (NCI-H727; first compound 2.53 µM) was 1. For the same molecule, the relative viability (NCI-H727; first compound 8 µM) was 1.05, the relative viability (NCI-H838; first compound 0.253 µM) was 1.11 and the relative viability (NCI-H838; first compound 0.8 µM) was 0.965. For the same molecule, the relative viability (NCI-H838; first compound 2.53 µM) was 1.15, the relative viability (NCI-H838; first compound 8 µM) was 1.2 and the relative viability (PC-3 [JPC-3]; first compound 0.253 µM) was 1.06. For the same molecule, the relative viability (PC-3 [JPC-3]; first compound 0.8 µM) was 0.974, the relative viability (PC-3 [JPC-3]; first compound 2.53 µM) was 1.17 and the relative viability (PC-3 [JPC-3]; first compound 8 µM) was 1.08. It also gave a relative viability (SK-MES-1; first compound 0.253 µM) of 0.944, a relative viability (SK-MES-1; first compound 0.8 µM) of 0.991 and a relative viability (SK-MES-1; first compound 2.53 µM) of 1.02. It also gave a relative viability (SK-MES-1; first compound 8 µM) of 0.844, a relative viability (SW 1573; first compound 0.253 µM) of 0.971 and a relative viability (SW 1573; first compound 0.8 µM) of 1.15. It also gave a relative viability (SW 1573; first compound 2.53 µM) of 0.95 and a relative viability (SW 1573; first compound 8 µM) of 0.877.
